One data set deals with HBV replication. In words: Anti-HBV antiviral assay in standardized culture assay. To be noted: for EC50: Hepatitis B virus, read-out: EC50 (anti-HBV activity); for SI (CC50/EC50): selectivity index, ratio of CC50 to EC50; for activity against HBV replication (in words): human hepatoblastoma cell line, activity order 5 > 6 > 4 > 3 > 1 > 2 > 7.
Data set [1] can be described thus: Toxicity in standardized culture assay. To be noted: human.
Setting [2] is: HBV-producing human hepatoblastoma cell line.

This is an account of results in article PMC6332330, “Four New Cyclohexylideneacetonitrile Derivatives from the Hypocotyl of Mangrove (Bruguiera gymnorrhiza)” (Molecules, 2015).

Converted amounts (≈) assume the structure as drawn.

As for `CO[C@H]1C=C/C(=C/C#N)[C@@H](O[C@@H]2O[C@H](CO)[C@@H](O)[C@H](O)[C@H]2O)C1` [Compound 1, Menisdaurin B], in the data set with HBV replication, the concentration giving a half-maximal response (EC50) turned out to be 23.8 ± 0.5 µg/mL (≈ 72.7 µM) and the “SI (CC50/EC50)” value worked out at 7.5. Moreover, the CC50 in data set [1] is 178 ± 13.3 µg/mL (≈ 544 µM).

Regarding `CO[C@H]1CC/C(=C/C#N)[C@@H](O[C@@H]2O[C@H](CO)[C@@H](O)[C@H](O)[C@H]2O)C1` [Compound 2, Menisdaurin C], in the data set with HBV replication, the EC50 was 30.7 ± 1 µg/mL (≈ 93.2 µM) and the “SI (CC50/EC50)” value is listed as 5.4. In data set [1], the cytotoxic concentration (CC50) came out at 165 ± 10.4 µg/mL (≈ 501 µM).

On to `N#C/C=C1/CC[C@H](O)C[C@@H]1O[C@@H]1O[C@H](CO)[C@@H](O)[C@H](O)[C@H]1O` [Compound 3, Menisdaurin D], for which, in the data set with HBV replication, the EC50 was 19.4 ± 0.3 µg/mL (≈ 61.5 µM) and the “SI (CC50/EC50)” value is recorded as 9.4. In data set [1], this compound showed a CC50 of 182 ± 6.8 µg/mL (≈ 577 µM).

For the compound `N#C/C=C1/CC[C@H](O)C[C@@H]1O` [Compound 4, Menisdaurin E], in the data set with HBV replication, the EC50 stood at 8.7 ± 1.1 µg/mL (≈ 56.8 µM) and the “SI (CC50/EC50)” value is 8.3. In data set [1] (setting [2]), this compound registered a CC50 of 72.3 ± 4.1 µg/mL (≈ 472 µM).

For the compound `N#C/C=C1/C=C[C@H](O)C[C@@H]1O[C@@H]1O[C@H](CO)[C@@H](O)[C@H](O)[C@H]1O` [Compound 5, menisdaurin], in the data set on HBV replication, the EC50 amounted to 5.1 ± 0.2 µg/mL (≈ 16.3 µM), the “activity against HBV replication (in words)” value is “most effective activity” and the “SI (CC50/EC50)” value is 11.3. In data set [1], this compound gave a half-maximal cytotoxic concentration (CC50) of 57.8 ± 3.9 µg/mL (≈ 184 µM).

Regarding `N#C/C=C1\C=C[C@H](O)C[C@@H]1O` [Compound 6, coclauril], in the data set on HBV replication, the EC50 is 7.6 ± 0.5 µg/mL (≈ 50.3 µM) and the “SI (CC50/EC50)” value is on record as 11.0. The compound also displayed a CC50 in data set [1] of 83.9 ± 2.3 µg/mL (≈ 555 µM).

Take `O=C1C=C2C=C[C@@H](O)C[C@H]2O1` [Compound 7, menisdaurilide]: in the data set on HBV replication, the EC50 was determined as 80.7 ± 5.8 µg/mL (≈ 530 µM), the “activity against HBV replication (in words)” value is on record as “lesser degree of specific activity” and the “SI (CC50/EC50)” value was 2.7. The compound also registered a CC50 in data set [1] (setting [2]) of 215 ± 14.7 µg/mL (≈ 1410 µM).

Turning to `Nc1ccn([C@@H]2CS[C@H](CO)O2)c(=O)n1` [Lamivudine, reference compound], in the data set on HBV replication, the EC50 amounted to 0.1 ± 0.03 µg/mL (≈ 0.436 µM).
